Results on two compounds are retold here after US11617748B2, “Meclozine derivatives and diclazuril derivatives for use in the prevention and/or the treatment of disorders associated to the inflammation induced by P. acnes” (priority 2016, dated 2023).

SMILES strings stand for the structures.

Broadly, the IC50 is the concentration needed to halve the response being measured.

The subject of assay [1] is IL-1β production. In words: PGN- and LTA-induced IL-1β production in ThP-1 monocytes (ELISA). It counts as cell-based, human. Particulars: ThP-1, 6.25 μM, 24 h pre-treatment, PGN or LTA 5-20 μg/ml. As to the method: ELISA. Human IL-1β, IL-8, hBD-2 and TNF-α protein concentration were measured in the supernatants of stimulated cells using various ELISA Sets (all from Ready-Set-Go from eBioscience, except hBD-2 measurements: Human DEFB4A/BD-2 ELISA Kit from LSBio) according to the manufacturer's instructions. We used serial dilutions of recombinant human IL-1β, IL-8, hBD-2 and TNF-α for standard curve. The optical density was determined at 450 nm at a wavelength correction of 540 nm.
(In general: ELISA stands for enzyme-linked immunosorbent assay.)

A further assay relates to IL-8 production. The assay is described as follows: P. acnes-induced IL-8 production in HaCaT keratinocytes (ELISA). It counts as cell-based, human. Particulars: HaCaT cells pre-treated 24 h, no P. acnes stimulation.
In the next assay the test system is JNK. In words: Western blot of p-JNK/JNK in P. acnes-stimulated HaCaT cells. It counts as cell-based, human. Particulars: 25 μM, 24 h pre-treatment. As for the experimental part: Western Blot analysis. Whole cell protein extracts (25 μg) were separated by electrophoresis (LDS-PAGE) under denaturing conditions with NuPAGE Novex 4-12% Bis-Tris gel (1 mm, 12 wells, Invitrogen, UK) and proteins were transferred onto nitrocellulose membranes and saturated in 20 ml of saturation buffer consisting of TBS 1× (Tris Buffered Saline) containing 200 mM Tris, 1.4 M NaCl (pH 7.6), 5% no fat milk, 0.1% Tween 20 for 1 h. […] After washing to remove unbound antibodies, bound primary antibodies were detected by incubation for 1 h using secondary antibody against rabbit- and mouse IgG (Santa Cruz Biotechnology, SC-2357, 1:5000 and SC-2005, 1:5000, respectively). Unbound material was removed by washing and peroxidase activity was detected in a chemiluminescence assay (WesternBright ECL, Advansta, Menlo Park, USA). […]
In general terms: In western blotting, separated proteins are transferred to a membrane and probed.

In assay [2] the test system is IL-1β production. In words: P. acnes-induced IL-1β production in ThP-1 monocytes (ELISA). It counts as cell-based. Particulars: Homo sapiens; ThP-1 cells pre-treated 24 h, then stimulated with P. acnes; read-out: IC50 of inhibition of IL-1β production. As to the method: Bacterial strain and conditions of growth. P. acnes strain 6919 was obtained from the American Type Culture Collection (Manassas, Va.) and P. acnes strains RON and PIE were isolated from patient with joint infection. All strains were grown under anaerobic conditions in reinforced clostridial liquid and solid medium (RCM) (Difco Laboratories, Detroit, Mich.). P. acnes was transferred from the bacterial stock onto RCM agar plate and incubated for 5 days under anaerobic condition by using a GasPak™ EZ Anaerobic Container System (Becton Dickinson & Co, Sparks Md., USA). A single colony was transferred into 100 ml RCM and grown as described above. Bacterial suspension was then store frozen at −80° C. in presence of 10% glycerol final. […]
ELISA. Human IL-1β, IL-8, hBD-2 and TNF-α protein concentration were measured in the supernatants of stimulated cells using various ELISA Sets (all from Ready-Set-Go from eBioscience, except hBD-2 measurements: Human DEFB4A/BD-2 ELISA Kit from LSBio) according to the manufacturer's instructions. […] The optical density was determined at 450 nm at a wavelength correction of 540 nm.
Both molecules, were tested to inhibit the production of IL-1β by the monocytic cell line. […] The production of IL-1β was measured on culture supernatant by ELISA and the viability of cells was estimated by MTT assay (FIG. 2).

Turning to `N#CC(c1ccc(Cl)cc1)c1c(Cl)cc(-n2ncc(=O)[nH]c2=O)cc1Cl` (centres unmarked) [diclazuril, Diclazuril], the “decrease of IL-1β production (average)” value with IL-1β production [1] came to 64%. In the assay on IL-8 production, the “IL-8 production in pretreated cells without being stimulated” value was “no change”. In addition, the “phosphorylation of JNK induced by P. acnes” value with JNK is “did not cause any changed”. The IC50 in the assay with IL-1β production [2] was about 3 µM.

As to `Cc1cccc(CN2CCN(C(c3ccccc3)c3ccc(Cl)cc3)CC2)c1` (centres unmarked) [meclozine, Meclozine], the “decrease of IL-1β production (average)” value in the assay on IL-1β production [1] turned out to be 36%. Moreover, the “IL-8 production in pretreated cells without being stimulated” value with IL-8 production is recorded as “no change”. Moreover, in the assay with JNK, the “phosphorylation of JNK induced by P. acnes” value was “did not cause any changed”. Further, the IC50 in the assay on IL-1β production [2] is about 6 µM.
